The numbers were not newly measured in patent US20090226898A1, “Mitochondrial markers of ischemia” (Inverness Medical Switzerland GMBH, priority 2005, published 2009), which cites them from elsewhere.

For data set [1], the target named is T1, FMLP receptor (68-kDa protein) (Homo sapiens, UniProt P21462).
T1 sequence (P21462 1-350): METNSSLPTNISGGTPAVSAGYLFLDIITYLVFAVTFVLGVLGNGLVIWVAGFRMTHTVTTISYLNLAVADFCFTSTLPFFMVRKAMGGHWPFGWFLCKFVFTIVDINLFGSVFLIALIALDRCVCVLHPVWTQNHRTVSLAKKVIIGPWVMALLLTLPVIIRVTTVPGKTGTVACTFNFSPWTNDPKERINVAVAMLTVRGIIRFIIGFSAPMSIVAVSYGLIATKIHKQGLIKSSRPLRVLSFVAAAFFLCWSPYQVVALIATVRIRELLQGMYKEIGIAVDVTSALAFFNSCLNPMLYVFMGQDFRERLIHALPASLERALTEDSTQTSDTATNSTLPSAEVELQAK
The note with it: binding to the 68-kDa protein.

Another data set relates to cardiac myocytes. The following applies: immediately before ischemia.
In the next data set the target is T2, FPR-like 2 (FPRL2) (Homo sapiens, UniProt P25089).
T2 sequence (P25089 1-353): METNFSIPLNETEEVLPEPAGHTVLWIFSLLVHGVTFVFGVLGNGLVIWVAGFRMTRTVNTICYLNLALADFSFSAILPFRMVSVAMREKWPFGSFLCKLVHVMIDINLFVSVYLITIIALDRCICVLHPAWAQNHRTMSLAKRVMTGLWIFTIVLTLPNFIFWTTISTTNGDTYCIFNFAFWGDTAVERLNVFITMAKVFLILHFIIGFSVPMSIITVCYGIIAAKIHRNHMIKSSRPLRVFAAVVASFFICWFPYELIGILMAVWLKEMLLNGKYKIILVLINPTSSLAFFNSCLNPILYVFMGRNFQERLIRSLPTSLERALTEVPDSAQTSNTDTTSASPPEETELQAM

Data set [2] deals with human monocytes and formyl peptide receptor-like 1 (FPRL1)-transfected human embryonic kidney 293 cells. The note with it: human monocytes and FPRL1-transfected HEK 293 cells.
Data set [3] shares this test system. The note with it: human monocytes and FPRL1-transfected HEK 293 cells. This is another data set of the same source.

As to RKAMGGHWPFGWFLCKF, in data set [1], the “inhibition of ligand binding” value was “strongest inhibitor of ligand binding”. For the compound `C=C(C)[C@H]1Cc2c(ccc3c2O[C@@H]2COc4cc(OC)c(OC)cc4[C@@H]2C3=O)O1` [rotenone], the damage to mitochondria result in the data set on cardiac myocytes is given as “reduces damage to mitochondria”. In the data set on cardiac myocytes (cardiac myocytes), the “production of ROS” value was “decreases the production of ROS”. For formyl-Met-Leu-Phe [fMLP], the receptor activation entry on FPR-like 2 (FPRL2) was “only activated by high (micromolar) concentrations”. As for “LL-37: neutrophil granule- and epithelial cell-derived cathelicidin, from hCAP18 (aa1-37) (LLGDFFRKSKEKIGKEFKRIVQRIKDFLRNLVPRTES; Antibacterial peptide LL-37; UniProt P49913 134-170, looked up)”, the chemotaxis result in data set [2] was “chemotactic”. Moreover, the calcium mobilization entry in data set [3] is “can induce calcium mobilization”.
